From patent US9611273B2, “Trioxane thioacetal monomers and dimers and methods of use thereof” (THE JOHNS HOPKINS UNIVERSITY, priority 2012, dated 2017)

What was measured:
[1] = tested on: P. berghei malaria parasites; assay: In vivo antimalarial efficacy, single oral dose of trioxane plus mefloquine hydrochloride in P. berghei-infected mice; details: for mouse survival post infection: single oral dose 6 mg/kg trioxane plus 18 mg/kg mefloquine, or 18 mg/kg mefloquine alone; for % suppression of parasitemia (on day 3 post infection) / average survival (days) after infection: single oral dose of 6 mg/kg trioxane and 18 mg/kg mefloquine hydrochloride (control: mefloquine-HCl only), P. berghei-infected mice; for average survival (days) after infection: groups of 4
Method: Using a standard protocol, see Slack, et al., 2012, 20-gram mice were infected by intraperitonial injection with P. berghei malaria parasites. One day after infection, each mouse in groups of 4 mice received a single oral dose of 6 mg/kg body weight of a trioxane thioacetal combined with 18 mg/kg of the long-lived antimalarial mefloquine hydrochloride. In all cases, parasitemia was decreased by at least 99% on day 3 post infection. Malaria-infected mice receiving no antimalarial drug died on day 6 or 7 post infection. Critically, control groups of mice receiving 6 mg/kg of the popular trioxane drug artemether (2b) plus 18 mg/kg of mefloquine, or just 18 mg/kg of mefloquine alone, survived for about 3 weeks post infection. In contrast, several of the presently disclosed trioxane thioacetals prolonged mouse survival for longer than 3 weeks, and in some instances produced partial cures; for example, 2 of 4 mice in one group (diisopropyl carbamate 3u) appeared healthy and had no detectable parasitemia on day 30 post infection.
The antimalarial efficacy of representative presently disclosed C-10 thioacetals, as well as controls, is summarized in Table 1, which includes the parasitemia levels for mice on day 3 post-infection.

[2] = tested on: P388 leukemia; details: NCI Report on NSC 369397, tested on 25 Oct. 1983; cited from earlier work
[3] = single oral dose 6 mg/kg plus 18 mg/kg mefloquine hydrochloride

Q: For `CO[C@H]1O[C@@H]2O[C@@]3(C)CC[C@H]4[C@H](C)CC[C@@H]([C@H]1C)[C@@]24OO3` [artemether, reference compound], which “mouse survival post infection” value [1] is on record?
A: about 3 weeks

Q: With `C[C@H]1[C@H](SCCCOCn2nnc3ccccc32)O[C@@H]2O[C@]3(C)CC[C@H]4[C@H](C)CC[C@@H]1[C@@]24OO3` [3k, Art-10α-S(CH2)3OCH2—N-benzotriazole] as the molecule, how does the “antimalarial efficacy in words” value [1, 3] read?
A: most highly efficacious

Q: Which “% suppression of parasitemia (on day 3 post infection)” value (from here on “% suppression of parasitemia”) [1] does the source give for `CSC(=S)OCCCS[C@@H]1O[C@@H]2O[C@]3(C)CC[C@H]4[C@H](C)CC[C@@H]([C@H]1C)[C@@]24OO3` [compound 114, Art-10α-S(CH2)3OC(S)SCH3] here?
A: 99.9%

Q: What about the “average survival (days) after infection” value [1] of the same molecule?
A: 22.0 days

Q: Which results are given for `CC(C)N(C(=O)OCCCS[C@@H]1O[C@@H]2O[C@]3(C)CC[C@H]4[C@H](C)CC[C@@H]([C@H]1C)[C@@]24OO3)C(C)C` [3u, AMJ-Art-10α-S(CH2)3OC(O)N(iPr)2]?
A: antimalarial efficacy in words [1, 3]: most highly efficacious; mice appearing healthy with no detectable parasitemia on day 30 post infection (partial cure) ([1]; single oral dose 6 mg/kg plus 18 mg/kg mefloquine hydrochloride, group of 4 mice): 2 of 4

Q: With `CSC(=O)OCCCS[C@@H]1O[C@@H]2O[C@@]3(C)CC[C@H]4[C@H](C)CC[C@@H]([C@H]1C)[C@@]24OO3` [compound 109, Art-10α-S(CH2)3OC(O)SCH3] as the molecule, how does the “% suppression of parasitemia” value [1] read?
A: >99.9%

Q: What about the “average survival (days) after infection” value [1] of the same molecule?
A: 24.5 days

Q: For `Cl.OC(c1cc(C(F)(F)F)nc2c(C(F)(F)F)cccc12)C1CCCCN1` (centres unmarked) [mefloquine-HCl only, mefloquine hydrochloride, reference compound], which “mouse survival post infection” value [1] is on record?
A: about 3 weeks

Q: What about the “% suppression of parasitemia” value [1] of the same molecule?
A: >99.9%

Q: What about the “average survival (days) after infection” value [1] of the same molecule?
A: 14.0 days

Q: Which “antimalarial efficacy in words” value [1, 3] does the source give for `C[C@H]1[C@H](SCCCOCc2ccc(F)cc2)O[C@@H]2O[C@]3(C)CC[C@H]4[C@H](C)CC[C@@H]1[C@@]24OO3` [3h, Art-10α-S(CH2)3OCH2PhF-4] here?
A: most highly efficacious

Q: Which “activity against P388 leukemia” value [2] does the source give for `C[C@@H]1CC[C@H]2[C@@H](C)C(=O)O[C@@H]3O[C@@]4(C)CC[C@@H]1[C@]32OO4` [artemisinin] here?
A: inactive

Q: Which “% suppression of parasitemia” value [1] does the source give for `CCCSC(=O)OCCCS[C@@H]1O[C@@H]2O[C@@]3(C)CC[C@H]4[C@H](C)CC[C@@H]([C@H]1C)[C@@]24OO3` [compound 110, Art-10α-S(CH2)3OC(O)SnPr] here?
A: >99.9%

Q: What about the “average survival (days) after infection” value [1] of the same molecule?
A: 19.3 days

Q: With `C[C@H]1[C@H](SCCCOC(=O)SC(C)(C)C)O[C@@H]2O[C@@]3(C)CC[C@H]4[C@H](C)CC[C@@H]1[C@@]24OO3` [compound 111, Art-10α-S(CH2)3OC(O)StBu] as the molecule, how does the “% suppression of parasitemia” value [1] read?
A: 99.9%

Q: And the “average survival (days) after infection” value [1]?
A: 29.8 days
